# Columns and labels:
# [1] = tested on: C57BL/6JRj mice injured by intra-nigral injections of α-syn combined with conduritol B epoxide; experiment: Mouse model of Parkinson's disease (intra-nigral α-syn plus CBE); format: in vivo; details: 30 mg/kg per os twice a day
# Text: This model (run by Neuro-Sys SAS, France) uses C57BL/6JRj mice injured by intra-nigral injections of a solution containing protofibrils of alpha-synuclein (α-syn, precisely quantified by automatic Western Blot) and combined with pharmacological inhibition of GBA by conduritol B epoxide, in aged mice. The model reproduces essential neuropathological features of PD (e.g. loss of dopaminergic neurons, α-syn aggregation, endoplasmic reticulum [ER] stress) and the neuroinflammatory response (microglia activation and release of proinflammatory cytokines) in the nigra striata area.
# Animal characteristics: • Type of animal: C57BL/6JRj (Male) • Age: 18 months old • Supplier: Janvier Labs • Animal number: 7 mice per group • Acclimation and clinical signs: Animals arrived on site 7 days (one week) before the experiment to allow optimal acclimation.
# • Test compound dose and administration: 30 mg/kg, per os (gavage or drinking water), twice a day • Test compound treatment: The test compound was solubilized (vehicle=water), aliquoted and stored at −20° C. Aliquots were thawed overnight at 4° C. and given twice a day (morning and afternoon). Treatment started on the day of the stereotaxic injections of α-syn preparation (Day 0). Treatment was administrated until the last day of the experiment (Day 28; =day of dissection). • CBE dose and administration: 50 mg/kg, Intraperitoneal (i.p.), twice a day. • CBE treatment: Administration of CBE (vehicle=saline [NaCl 0.9%] started on the day of the stereotaxic injections of α-syn preparation (Day 0). Treatment was administrated until the last day of the experiment (Day 28; =day of dissection), • Untreated control: vehicle (saline; i.p.) administered twice a day, […]
# For overall evaluation and body mass, mice were observed daily, and body mass was monitored prior the morning drug administration. […]
# [2] = tested on: Human osteosarcoma U2OS cells; experiment: Assay to measure lysosome and autolysosome (acidic vesicle) formation in U2OS cells; format: cell-based; details: Homo sapiens, concentration of 0.8 μM, read-out: Activity (percentage increase in acidic vesicle formation over the DMSO-treated control)
# Description: Lysosomes play a fundamental role in the autophagic pathway by fusing with autophagosomes and creating ‘autolysosomes’ in order to digest their contents. Stimulation of lysosome and autolysosome formation by a compound is indicative of a stimulation of autophagy. The ability of compounds to stimulate lysosome and autolysosome formation, and thus autophagy, in live cells was assessed via fluorescent microscopy using various fluorescent stains for labelling and tracking acidic organelles (including lysosomes and autolysosomes) such as: LysoView™ 650 (70059 and 70059-T, Biotium), Lyso View™633 (70058 and 70058-T, Biotium) and LysoTracker™ Deep Red (L12492, ThermoFisher Scientific). The cellular phenotype was quantitatively assessed for the induction of acidic vesicle formation and compared to a non-treated control, thus providing a measure of the ability of the compound under investigation to stimulate autophagy.
# Representative procedure using LysoView™ 633 dye or LysoTracker™ Deep Red dye: Human osteosarcoma U2OS cells (40,000 cells/well) were seeded in a 24 well glass bottom plate (Sensoplate, Greiner Bio-One) and were incubated overnight in a humidified atmosphere at 37° C. and 5% CO2. Cells were grown in DMEM (Gibco) supplemented with 10% Fetal Bovine Serum (FBS) and 100 units/ml penicillin and 100 μg/ml streptomycin (Invitrogen). After the attachment period, cells were treated with different compounds of interest (at various concentrations in DMSO) or DMSO (non-treated control) in cell culture medium and were incubated for 24 hours. Compound-containing medium was removed and cells were incubated with pre-warmed cell culture medium containing 1× Lyso View™ 633 (70058 and 70058-T, Biotium) or 50 nM LysoTracker™ Deep Red (L12492, ThermoFisher Scientific) for 45 minutes at 37° C. Finally, cell nuclei were stained for 10 minutes using Hoechst 33342 (1 μg/mL) and then the medium was replaced with fresh medium. The 24 well plate was then fitted into a heated stage on the microscope and cells maintained at 37° C. Images were captured using appropriate filter set for Cy5 and DAPI detection with the EVOS M7000 Microscope (ThermoFisher Scientific). The cellular phenotype was visually assessed for the induction of acidic vesicle formation relative to the non-treated control; multiple images were acquired and analysed using ImageJ or Cell Profiler.
# [3] = day 28, compared to the α-syn/CBE injured group
smiles,measurement,setting,value
"CCN1CCC(N(C)C(=O)c2csc(-c3cnn(-c4ccccc4)c3)n2)CC1 [Compound 196, N-(1-ethylpiperidin-4-yl)-N-methyl-2-(1-phenyl-1H-pyrazol-4-yl)-1,3-thiazole-4-carboxamide]",body mass of the animals,[1]; after 4 weeks of treatment,did not significantly modify
same,decrease in the number of Iba1-positive microglial cells in the SNpc,[1]; [3],> 15%
same,increase in the number of dopaminergic TH positive neurons in the SNpc,[1]; [3],> 60%
same,activation at 0.8 µM,[2],30 to 50%
